Source: ChEMBL document CHEMBL3600352, “Design, synthesis and biological evaluation of isoquinoline-based derivatives as novel histone deacetylase inhibitors” (Bioorg Med Chem, 2015)

Legend:
[1] = molecular target: T1, hERG (KCNH2) (Homo sapiens, UniProt Q12809); test: Inhibition of human ERG overexpressed in CHO cells at 3 uM by Qpatch method relative to control; assay type: cell-based; conditions: CHO cells overexpressing human ERG
[2] = molecular target: T1, hERG (KCNH2); test: Inhibition of human ERG overexpressed in CHO cells at 40 uM by Qpatch method relative to control; assay type: cell-based; conditions: CHO cells overexpressing human ERG
[3] = molecular target: Histone deacetylase 1 (Homo sapiens, UniProt Q13547); test: Inhibition of recombinant His6-tagged GST-fused human HDAC1 expressed in baculovirus infected insect High5 cells using Ac-Lys-Tyr-Lys(epsilon-acetyl)-AMC as substrate after 24 hrs
[4] = molecular target: Histone deacetylase 3 (Homo sapiens, UniProt O15379); test: Inhibition of recombinant His6-tagged GST-fused human HDAC3 expressed in baculovirus infected insect High5 cells using Ac-Lys-Tyr-Lys(epsilon-acetyl)-AMC as substrate after 24 hrs
[5] = molecular target: T2, Protein deacetylase HDAC6 (Homo sapiens, UniProt Q9UBN7); test: Inhibition of recombinant His6-tagged GST-fused human HDAC6 expressed in baculovirus infected insect High5 cells using Boc-Lys-(epsilon-acetyl)-AMC as substrate after 3 hrs
T2 sequence (Q9UBN7 whole entry): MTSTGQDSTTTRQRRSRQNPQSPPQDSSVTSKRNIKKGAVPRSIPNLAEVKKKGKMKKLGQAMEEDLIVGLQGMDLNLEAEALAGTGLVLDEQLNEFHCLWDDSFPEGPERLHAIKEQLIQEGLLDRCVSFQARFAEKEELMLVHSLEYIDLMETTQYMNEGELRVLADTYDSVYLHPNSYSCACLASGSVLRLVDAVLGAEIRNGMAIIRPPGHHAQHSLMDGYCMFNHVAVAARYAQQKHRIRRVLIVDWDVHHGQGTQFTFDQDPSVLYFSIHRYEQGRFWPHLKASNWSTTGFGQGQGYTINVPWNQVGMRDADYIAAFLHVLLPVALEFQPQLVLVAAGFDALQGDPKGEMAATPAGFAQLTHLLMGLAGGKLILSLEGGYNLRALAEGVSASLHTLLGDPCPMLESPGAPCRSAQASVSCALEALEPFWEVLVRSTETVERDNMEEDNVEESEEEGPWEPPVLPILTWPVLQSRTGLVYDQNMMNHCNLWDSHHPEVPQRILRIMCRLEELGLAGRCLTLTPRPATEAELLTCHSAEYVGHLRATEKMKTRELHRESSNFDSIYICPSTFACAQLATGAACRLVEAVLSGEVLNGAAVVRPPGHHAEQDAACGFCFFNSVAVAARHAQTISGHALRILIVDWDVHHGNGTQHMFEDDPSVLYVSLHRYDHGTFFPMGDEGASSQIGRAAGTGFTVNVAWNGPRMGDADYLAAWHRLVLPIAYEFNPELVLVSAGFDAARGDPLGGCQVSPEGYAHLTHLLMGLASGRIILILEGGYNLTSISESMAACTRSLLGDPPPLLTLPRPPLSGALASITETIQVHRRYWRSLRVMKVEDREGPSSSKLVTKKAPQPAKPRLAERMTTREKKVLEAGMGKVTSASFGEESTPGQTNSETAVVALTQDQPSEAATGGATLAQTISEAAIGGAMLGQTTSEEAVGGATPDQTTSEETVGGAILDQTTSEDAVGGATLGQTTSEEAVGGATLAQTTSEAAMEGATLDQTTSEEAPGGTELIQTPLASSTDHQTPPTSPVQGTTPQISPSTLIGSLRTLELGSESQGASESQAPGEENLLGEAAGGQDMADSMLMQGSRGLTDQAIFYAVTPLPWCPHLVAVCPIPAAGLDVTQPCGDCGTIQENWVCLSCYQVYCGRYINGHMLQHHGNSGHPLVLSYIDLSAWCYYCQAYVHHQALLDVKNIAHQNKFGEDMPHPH

[6] = tested on: RPMI-8226; test: Cytotoxicity against human RPMI8226 cells assessed as cell viability after 72 hrs by CCK8 assay; assay type: functional, cell-based; conditions: RPMI-8226, 72 h
[7] = molecular target: Voltage-gated inwardly rectifying potassium channel KCNH2 (Homo sapiens, UniProt Q12809); test: Inhibition of human ERG overexpressed in CHO cells by Qpatch method; assay type: cell-based
[8] = tested on: HCT-116; test: Cytotoxicity against human HCT116 cells assessed as cell viability after 72 hrs by CCK8 assay; assay type: functional, cell-based; conditions: HCT-116, 72 h
[9] = tested on: HepG2; test: Cytotoxicity against human HepG2 cells assessed as cell viability after 72 hrs by CCK8 assay; assay type: functional, cell-based; conditions: HepG2, 72 h
[10] = molecular target: T3, Histone deacetylase (Homo sapiens) (UniProt Q13547+O15379+Q9UBN7+Q92769+Q9UQL6+Q8WUI4+Q9BY41+Q96DB2+P56524+Q9UKV0+Q969S8); test: Inhibition of HDAC in human RPMI8226 cells assessed as upregulation of acetylated alpha-tubulin level after 24 hrs by Western blot analysis; assay type: cell-based; conditions: RPMI-8226
[11] = molecular target: T3, Histone deacetylase (Homo sapiens); test: Inhibition of HDAC in human RPMI8226 cells assessed as upregulation of acetylated histone H3 level after 24 hrs by Western blot analysis; assay type: cell-based; conditions: RPMI-8226

Sequence of Histone deacetylase 3 (O15379 whole entry, the tested form may be a part): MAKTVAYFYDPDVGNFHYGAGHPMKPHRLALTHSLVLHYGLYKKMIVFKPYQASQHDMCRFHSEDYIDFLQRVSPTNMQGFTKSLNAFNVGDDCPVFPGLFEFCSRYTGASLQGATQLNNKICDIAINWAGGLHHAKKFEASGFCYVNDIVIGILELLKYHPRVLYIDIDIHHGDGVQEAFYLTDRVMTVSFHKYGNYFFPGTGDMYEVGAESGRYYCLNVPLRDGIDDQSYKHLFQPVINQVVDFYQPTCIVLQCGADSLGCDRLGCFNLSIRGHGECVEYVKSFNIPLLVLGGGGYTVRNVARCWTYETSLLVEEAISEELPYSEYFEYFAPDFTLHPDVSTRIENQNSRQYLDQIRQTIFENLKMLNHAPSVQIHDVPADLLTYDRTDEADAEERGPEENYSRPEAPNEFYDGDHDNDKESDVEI
Sequence of Histone deacetylase 1 (Q13547 whole entry, the tested form may be a part): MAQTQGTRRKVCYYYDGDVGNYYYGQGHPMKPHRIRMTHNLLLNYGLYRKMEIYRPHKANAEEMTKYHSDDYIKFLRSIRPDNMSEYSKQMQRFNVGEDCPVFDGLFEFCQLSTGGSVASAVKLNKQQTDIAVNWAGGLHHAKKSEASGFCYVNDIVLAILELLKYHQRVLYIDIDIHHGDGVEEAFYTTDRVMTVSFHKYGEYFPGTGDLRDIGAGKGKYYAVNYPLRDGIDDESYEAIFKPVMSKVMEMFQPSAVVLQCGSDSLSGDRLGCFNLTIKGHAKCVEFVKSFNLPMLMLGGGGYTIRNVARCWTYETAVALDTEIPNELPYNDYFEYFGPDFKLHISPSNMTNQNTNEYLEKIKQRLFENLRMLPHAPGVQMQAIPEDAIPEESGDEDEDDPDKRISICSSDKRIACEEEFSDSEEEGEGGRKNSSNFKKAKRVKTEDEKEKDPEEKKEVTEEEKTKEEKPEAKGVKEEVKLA
T1 sequence (Q12809 whole entry): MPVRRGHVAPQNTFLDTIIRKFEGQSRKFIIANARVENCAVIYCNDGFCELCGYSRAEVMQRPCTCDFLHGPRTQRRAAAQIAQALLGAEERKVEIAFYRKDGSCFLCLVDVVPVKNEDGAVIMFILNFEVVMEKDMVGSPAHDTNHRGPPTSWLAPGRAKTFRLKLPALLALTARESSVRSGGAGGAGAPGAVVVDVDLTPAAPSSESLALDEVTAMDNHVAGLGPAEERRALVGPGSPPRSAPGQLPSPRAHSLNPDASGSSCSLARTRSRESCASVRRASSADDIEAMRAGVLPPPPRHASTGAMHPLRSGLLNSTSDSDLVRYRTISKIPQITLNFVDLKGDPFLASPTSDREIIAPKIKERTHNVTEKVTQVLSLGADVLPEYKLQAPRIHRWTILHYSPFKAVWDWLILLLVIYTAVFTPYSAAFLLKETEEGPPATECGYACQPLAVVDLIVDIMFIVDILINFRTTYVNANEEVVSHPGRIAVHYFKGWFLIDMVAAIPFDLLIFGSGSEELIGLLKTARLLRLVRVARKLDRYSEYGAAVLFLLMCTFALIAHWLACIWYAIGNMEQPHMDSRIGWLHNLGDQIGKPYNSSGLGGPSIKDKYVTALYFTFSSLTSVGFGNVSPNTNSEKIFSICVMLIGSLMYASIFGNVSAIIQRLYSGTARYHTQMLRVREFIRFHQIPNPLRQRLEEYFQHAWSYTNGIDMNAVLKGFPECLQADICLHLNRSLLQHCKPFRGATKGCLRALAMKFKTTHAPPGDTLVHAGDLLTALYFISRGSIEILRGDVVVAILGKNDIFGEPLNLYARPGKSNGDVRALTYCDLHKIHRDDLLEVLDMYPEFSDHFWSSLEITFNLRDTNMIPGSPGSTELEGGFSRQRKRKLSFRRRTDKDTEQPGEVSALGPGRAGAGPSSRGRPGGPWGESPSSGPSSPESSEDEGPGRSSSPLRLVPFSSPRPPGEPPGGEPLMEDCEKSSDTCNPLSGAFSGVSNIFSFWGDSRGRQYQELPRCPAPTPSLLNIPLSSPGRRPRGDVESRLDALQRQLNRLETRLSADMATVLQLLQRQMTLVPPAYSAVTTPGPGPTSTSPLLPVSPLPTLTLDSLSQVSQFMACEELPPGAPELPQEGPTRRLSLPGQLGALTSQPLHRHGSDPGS
Sequence of Voltage-gated inwardly rectifying potassium channel KCNH2 (Q12809 whole entry): as above

SMILES: COc1cc(N)c(Cl)cc1C(=O)NC1CCN(CCCOc2ccc(F)cc2)CC1OC (stereo not drawn) [CISAPRIDE]
- inhibition at 3 µM [1]: 98.7%

SMILES: O=C(CCCCCCC(=O)Nc1ccc2ccnc(Nc3ccc4ccccc4c3)c2c1)NO
- inhibition at 40 µM [2]: 17.5%
- IC50 [3]: 5.75 nM
- IC50 [4]: 5.42 nM
- IC50 [5]: 5.15 nM
- IC50 [6]: 740 nM
- IC50 [7]: > 40000 nM

SMILES: Cc1ccc(Nc2nccc3ccc(NC(=O)CCCCCCC(=O)NO)cc23)c(Br)c1
- IC50 [3]: 15.4 nM
- IC50 [4]: 17.6 nM
- IC50 [5]: 6.26 nM
- IC50 [6]: 470 nM
- IC50 [8]: 260 nM
- IC50 [9]: 8450 nM

SMILES: Cc1ccc(Nc2nccc3ccc(NCc4ccc(C(=O)NO)cc4)cc23)cc1
- IC50 [3]: 323 nM
- IC50 [4]: 264 nM
- IC50 [5]: 352 nM
- IC50 [6]: > 20000 nM

SMILES: Cc1ccc(Nc2nccc3ccc(NC(=O)CCCCCCC(=O)NO)cc23)cc1
- IC50 [3]: 4.17 nM
- IC50 [4]: 4 nM
- IC50 [5]: 3.77 nM
- IC50 [6]: 770 nM

SMILES: Cc1ccc(Nc2nccc3ccc(NC(=O)CCCCCCC(=O)NO)cc23)c(Cl)c1
- IC50 [3]: 19.5 nM
- IC50 [4]: 21.2 nM
- IC50 [5]: 29.9 nM
- IC50 [6]: 520 nM
- IC50 [8]: 170 nM
- IC50 [9]: 10000 nM

SMILES: COCCN(CCOC)c1nccc2ccc(NC(=O)CCCCCCC(=O)NO)cc12
- IC50 [3]: 263 nM
- IC50 [4]: 192 nM
- IC50 [5]: 148 nM
- IC50 [6]: 7710 nM

SMILES: Cc1ccc(Nc2nccc3ccc(NCc4ccc(/C=C/C(=O)NO)cc4)cc23)c(Cl)c1
- IC50 [3]: 571 nM
- IC50 [4]: 475 nM
- IC50 [5]: 286 nM
- IC50 [6]: 2710 nM

SMILES: CC(C)N1CCN(c2nccc3ccc(NC(=O)CCCCCCC(=O)NO)cc23)CC1
- IC50 [3]: 41.6 nM
- IC50 [4]: 36 nM
- IC50 [5]: 25 nM
- IC50 [6]: 1350 nM

SMILES: O=C(CCCCCCC(=O)Nc1ccc2ccnc(Nc3ccccc3F)c2c1)NO
- IC50 [3]: 18 nM
- IC50 [4]: 18.9 nM
- IC50 [5]: 11 nM
- IC50 [6]: 940 nM

SMILES: O=C(CCCCCCC(=O)Nc1ccc2ccnc(Nc3ccc(Br)cc3F)c2c1)NO
- inhibition at 40 µM [2]: 43.7%
- IC50 [3]: 15.5 nM
- IC50 [4]: 16.7 nM
- IC50 [5]: 6.83 nM
- IC50 [6]: 460 nM
- IC50 [8]: 190 nM
- IC50 [9]: 5870 nM
- inhibition [10]: Dose-dependent effect
- inhibition [11]: Dose-dependent effect
- IC50 [7]: > 40000 nM

SMILES: Cc1ccc(Nc2nccc3ccc(NCc4ccc(/C=C/C(=O)NO)cc4)cc23)c(Br)c1
- IC50 [3]: 439 nM
- IC50 [4]: 633 nM
- IC50 [5]: 304 nM
- IC50 [6]: 5220 nM

SMILES: CCN(CC)CCn1ccc2ccc(NC(=O)CCCCCCC(=O)NO)cc2c1=O
- IC50 [3]: 69 nM
- IC50 [4]: 74.4 nM
- IC50 [5]: 38.7 nM
- IC50 [6]: 2160 nM

SMILES: Cc1ccc(Nc2nccc3ccc(NC(=O)CCCCCCC(=O)NO)cc23)c(F)c1
- IC50 [3]: 35.4 nM
- IC50 [4]: 39.7 nM
- IC50 [5]: 40.9 nM
- IC50 [6]: 2040 nM

SMILES: Cc1ccc(Nc2nccc3ccc(NCc4ccc(/C=C/C(=O)NO)cc4)cc23)cc1
- IC50 [3]: 205 nM
- IC50 [4]: 176 nM
- IC50 [5]: 58.9 nM
- IC50 [6]: 2040 nM

SMILES: COc1ccc(Cn2ccc3ccc(NC(=O)CCCCCCC(=O)NO)cc3c2=O)c(OC)c1
- IC50 [3]: 98.1 nM
- IC50 [4]: 108 nM
- IC50 [5]: 100 nM
- IC50 [6]: 2640 nM

SMILES: O=C(COc1ccc(C(=O)NO)cc1)Nc1ccc2ccnc(Nc3ccc4ccccc4c3)c2c1
- IC50 [3]: 272 nM
- IC50 [4]: 276 nM
- IC50 [5]: 545 nM
- IC50 [6]: 7300 nM

SMILES: CC(C)CCn1ccc2ccc(NC(=O)CCCCCCC(=O)NO)cc2c1=O
- IC50 [3]: 66 nM
- IC50 [4]: 69.2 nM
- IC50 [5]: 54.2 nM
- IC50 [6]: 1800 nM

SMILES: O=C(CCCCCCC(=O)Nc1ccc2ccnc(Nc3cccc(Cl)c3F)c2c1)NO
- IC50 [3]: 17.5 nM
- IC50 [4]: 21.6 nM
- IC50 [5]: 7.96 nM
- IC50 [6]: 720 nM
- inhibition [10]: Dose-dependent effect
- inhibition [11]: Dose-dependent effect

SMILES: COCCCNc1nccc2ccc(NC(=O)CCCCCCC(=O)NO)cc12
- IC50 [3]: 27.9 nM
- IC50 [4]: 14 nM
- IC50 [5]: 13.6 nM
- IC50 [6]: 2710 nM

SMILES: O=C(CCCCCCC(=O)Nc1ccc2ccnc(N3CCOCC3)c2c1)NO
- IC50 [3]: 45.9 nM
- IC50 [4]: 40.8 nM
- IC50 [5]: 29.5 nM
- IC50 [6]: 1330 nM
- IC50 [8]: 280 nM
- IC50 [9]: 14000 nM

SMILES: CCCCn1ccc2ccc(NC(=O)CCCCCCC(=O)NO)cc2c1=O
- IC50 [3]: 65.8 nM
- IC50 [4]: 92 nM
- IC50 [5]: 32.1 nM
- IC50 [6]: 1880 nM
- IC50 [8]: 1720 nM
- IC50 [9]: 18500 nM
